Read-outs that look alike come from different tables or passages of the source.

Here are results for 21 molecules from patent US11560391B2, “Sulfonylurea compounds as inhibitors of interleukin-1 activity” (Genentech, Inc., priority 2018, dated 2023).

Assay [1] relates to THP-1 ASC-GFP cells. The assay is described as follows: THP-1 ASC-GFP speck assay (NLRP3 inflammasome activation, nigericin). The class given is cell-based. The note with it: THP1-ASC-GFP; PMA-differentiated, LPS primed, 10 μM nigericin. The method, then:
THP-1 ASC-GFP cell line was purchased from Invivogen, San Diego, for infammasome activation assay. THP-1 ASC-GFP cells stably express a 37.6 kDa ASC::GFP fusion protein that enables monitoring of spec formation by microscopy after activation of NLRP3 dependent inflammasome pathway. Cells were maintained at a density of 600,000 cells/mL in growth media consisting of RPMI 1640, 2 mM L-glutamine, 25 mM HEPES and 10% heat inactivated fetal bovine serum at 37° C. and 5% CO2. Cells were passaged every 3-4 days and used for assays for up to 20 passages.
THP-1 ASC-GFP cells were collected by centrifuging cells at 800 RPM for 5 minutes. Cell culture supernatant was removed and cells were re-suspended in fresh media at density of 1×10^6 cells/mL in assay media consisting of RPMI 1640, 2 mM L-glutamine, 25 mM HEPES and 10% heat inactivated fetal bovine serum. Phorbol 12-myristate 13-acetate (PMA) (Invivogen,tlrl-pma) was added to the cell suspension at a final concentration of 500 ng/ml and mixed thoroughly. 40,000 cells were added per well of a 384 well plate and differentiated into macrophages overnight at 37° C. and 5% CO2. Cells were primed with 1 μg/mL of lipopolysaccharide (Invivogen Ultrapure lipopolysaccharide from E. coli, tlrl-3pelps) in assay media for 3 hours at 37° C. and 5% CO2. After priming, media was removed and THP-1 ASC-GFP cells were preincubated with serially diluted test compounds with starting concentration of 40 μM followed by 2-fold dilution for a 20-point curve or vehicle (DMSO) for 30 min in assay media at 37° C. and 5% CO2. Cells were then stimulated with 10 μM nigericin (Invivogen, tlrl-nig-5) for 90 min at 37° C. and 5% CO2 to activate NLRP3 dependent inflammasome pathway and spec formation. After stimulation, cells were fixed with 4.8% paraformaldehyde (Electron Microscopy Sciences #15710-S) and incubated at room temperature for 15 min. Cells were then washed 3-times with 100 μL of phosphate buffered saline and permeabilized in the presence of premeablization/block buffer for 20 min at room temperature. Cells were then washed 3-times with 100 μL phosphate buffered saline and incubated for 1 hr at room temperature in the presence of hoechst. After staining with Hoechst, cells were washed 3-times with 100 μL phosphate buffered saline and imaged for ASC spec formation.
THP-1 ASC-GFP cells were imaged in 488 and Hoechst channels. Hoechst channel was used for cell count and 488 channel was used to identify number of GFP ASC specks in imaged fields. Percentage of cells with a spec was calculated by dividing the number of GFP positive spots by total number of cells.

The target in assay [2] is T1, NLRP3 inflammasome (Homo sapiens, UniProt Q96P20).
T1 construct: freshly isolated from human peripheral blood from healthy donors; StemCells Technologies; host or cells: primary human PBMCs
T1 sequence (Q96P20 whole entry): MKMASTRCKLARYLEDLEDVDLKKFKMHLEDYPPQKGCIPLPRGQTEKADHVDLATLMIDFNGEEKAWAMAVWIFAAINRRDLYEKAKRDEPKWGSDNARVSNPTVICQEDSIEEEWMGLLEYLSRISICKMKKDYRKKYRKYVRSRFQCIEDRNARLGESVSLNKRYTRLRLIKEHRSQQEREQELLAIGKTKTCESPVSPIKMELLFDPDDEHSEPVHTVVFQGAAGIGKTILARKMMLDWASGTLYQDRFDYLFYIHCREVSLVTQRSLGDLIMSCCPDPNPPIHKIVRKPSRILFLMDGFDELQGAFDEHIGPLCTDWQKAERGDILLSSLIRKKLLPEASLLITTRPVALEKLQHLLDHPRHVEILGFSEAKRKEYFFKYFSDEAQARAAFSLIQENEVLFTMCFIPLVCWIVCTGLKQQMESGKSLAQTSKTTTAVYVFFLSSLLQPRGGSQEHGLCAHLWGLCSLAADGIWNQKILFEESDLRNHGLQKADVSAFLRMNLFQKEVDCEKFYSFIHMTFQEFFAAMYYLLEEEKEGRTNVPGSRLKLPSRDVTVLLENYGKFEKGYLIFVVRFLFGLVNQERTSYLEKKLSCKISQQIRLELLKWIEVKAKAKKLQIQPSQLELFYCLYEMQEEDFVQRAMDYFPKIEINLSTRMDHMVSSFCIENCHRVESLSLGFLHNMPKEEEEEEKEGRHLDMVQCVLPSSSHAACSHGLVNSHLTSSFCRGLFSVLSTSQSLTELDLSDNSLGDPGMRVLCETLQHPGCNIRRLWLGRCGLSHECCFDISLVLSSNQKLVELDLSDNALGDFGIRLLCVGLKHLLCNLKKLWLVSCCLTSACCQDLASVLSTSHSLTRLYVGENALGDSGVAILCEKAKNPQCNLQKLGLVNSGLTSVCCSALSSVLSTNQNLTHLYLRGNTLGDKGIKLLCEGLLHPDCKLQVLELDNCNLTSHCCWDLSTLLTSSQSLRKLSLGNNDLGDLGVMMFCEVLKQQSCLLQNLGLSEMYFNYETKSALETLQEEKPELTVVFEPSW
Nature of the assay: NLRP3 inflammasome activation assay in LPS-primed, nigericin-stimulated PBMCs, IL-1β release. In kind it is cell-based. The note with it: 10 μM nigericin. As for the experimental part: Some of the following assays were used to determine the inhibitory activity of the compounds on the NLRP3 inflammasome using a common inflammasome activation stimuli-nigericin.
(§1) Human peripheral blood mononuclear cells (PBMCs), consisting of lymphocytes (T, B and NK cells), monocytes and dendritic cells, are freshly isolated from human peripheral blood from healthy donors. Cells are obtained through an IRB approved donor program by iXCells Biotechnologies where all the donors are tested for bacterial and viral infections. Cells are purified from peripheral blood using ficoll gradient centrifugation.
(§2) Fresh or cryopreserved PMBCs are seeded in V-bottom 96-well plate at 0.5-1×10^5 cells per well and incubated overnight at 37° C. with 5% CO2 in RPMI 1640 medium with GlutaMAX supplement, 4.5 g/L D-glucose, 10% Fetal Bovine Serum (FBS), […] Sodium Pyruvate, 1% Penicillin/Streptomycin, 10 mM HEPES and 0.05 mM of […]. Freshly isolated or cryopreserved KCs cells are seeded in flat-bottom 96-well plates at 0.6-1.5×10^5 cells/well and incubated overnight at 37° C., 5% CO2 in RPMI 1640 Medium with GlutaMAX supplement, FBS, 1% Penicillin/Streptomycin and 10 mM HEPES. The following day, the cells are primed with 100 ng/mL of lipopolysaccharides (LPS; Sigma Aldrich) in FBS-free RPMI 1640 for 3 h. After the priming step, the media is removed and PBMCs are pre-incubated with serial concentrations of test compounds (0.00017-10 uM) or vehicle (DMSO) for 30 min in FBS-free media prior to addition of the NLRP3 activator. Cells are then stimulated with 10 μM Nigericin (Sigma Aldrich; InvivoGen) for 1.5 h. Plates were centrifuged at 1,500 rpm for 3 minutes to pellet cells and supernatant was transferred into new plates for subsequent experiments.
For ELISA assays cells are seeded into 96-well plates. Post study, supernatants are removed and the levels of mature IL-1β, IL18 and TNFα (Quantikine ELISA, R&D systems) are measured in cell conditioned media by ELISA according to manufacturer's instructions.
Human frozen PBMCs were purchased from StemCells Technologies. Cells were rapidly thawed in 37° C. water bath and resuspended in fresh assay media consisting of RPMI 1640 Medium containing 1% sodium pyruvate, 10 mM HEPES, 2.5 g/L glucose and 55 μM 2-Mercaptoethanol. Cell density was adjusted to 8.1×10^5 cells/mL. Cells were primed by adding lipopolysaccharide (Invivogen Ultrapure lipopolysaccharide from E. coli, tlrl-3pelps) at a final concentration of 100 ng/mL in cell suspension. 37 μL of cell suspension with LPS was seeded per well of a 384 well plate and incubated for 3 hours at 37° C. and 5% CO2. After priming, PBMCs were preincubated with serially diluted test compounds with starting concentration of 40 μM followed by 2-fold dilution for a 20-point curve or vehicle (DMSO) for 30 min in assay media at 37° C. and 5% CO2. Cells were then stimulated with 10 μM nigericin (Invivogen, tlrl-nig-5) for 90 min at 37° C. and 5% CO2 to activate NLRP3 dependent inflammasome pathway and IL-1β release in cell culture supernatant. Cells were centrifuged at 1200 RPM for 1 min and 40 μL of supernatant was transferred into fresh plates and stored at −80° C. until IL-1β analysis.
16 μL of supernatant was added to white 384 well HTRF plates, followed by addition of 4 μL of HTRF cocktail in each well. Plates were quickly centrifuged, sealed and incubated overnight at room temperature. Next day, HTRF signal was read on a Pherastar and ratio of 665/620 was calculated based on manufacturer's protocol to obtain concentration of IL-1β in cell culture supernatant.

In assay [3] the test system is PBMCs. The assay is described as follows: CTG (CellTiter-Glo) viability assay of compound-treated LPS and nigericin stimulated PBMCs. The class given is cell-based, human. The method, then:
as §1, §2
Viability of compound treated cells is measured using CellTiter-Glo® assay (Promega, Madison, Wis.) that measures the ATP content of cells which is proportional to the number of live cells within a well. This is a counter-screen to establish that the reduction of IL-1β levels in LPS and nigericin stimulated and compound treated cells is not due to cytotoxicity, but rather through the inhibition of the inflammasome pathway. Compounds inhibiting NRLP3 inflammasome activation ultimately increase the viability of LPS and nigericin stimulated cells by blocking NLRP3 mediated pyroptosis that would otherwise lead to cell lysis.
On the technique in general: ATP-based viability assays read luminescence as a measure of living cells.

[4] abbreviates: LPS 100 ng/mL priming, read-out: IL-1B pIC50 (converted).
[5] abbreviates: Homo sapiens, PBMC, LPS and nigericin stimulated cells, read-out: CTG pIC50 (converted).
The mark [6] stands for this setting: PBMC, LPS priming, read-out: PMBC IL-1β IC50.
The mark [7] stands for this setting: Homo sapiens, PBMC, read-out: PMBC CTG IC50.

For the molecule `CO[C@@H]1COc2c(S(=O)(=O)NC(=O)Nc3c(C(C)C)nn(C(F)(F)F)c3C(C)C)cnn2C1` [Example 78a, (S)—N-((3,5-diisopropyl-1-(trifluoromethyl)-1H-pyrazol-4-yl)carbamoyl)-6-methoxy-6,7-dihydro-5H-pyrazolo[5,1-b][1,3]oxazine-3-sulfonamide], the IC50 in assay [1] came out at 71 nM.
On the same count and under the same terms, the value for `CC(C)c1nn(CC(F)F)c(C(C)C)c1NC(=O)NS(=O)(=O)c1cnn2c1OCCC2` [Example 63, N-((1-(2,2-difluoroethyl)-3,5-diisopropyl-1H-pyrazol-4-yl)carbamoyl)-6,7-dihydro-5H-pyrazolo[5,1-b][1,3]oxazine-3-sulfonamide, ammonia] was 350 nM.
As to `CC(C)c1nn(C(C)C)c(C(C)C)c1NC(=O)NS(=O)(=O)c1cnn2c1OCCC2` [drawing 400], the IC50 in assay [2] (setting [4]) and in assay [3] (setting [5]) was 1000 to 10000 nM each time.
In the case of `CC(C)c1cncc(C(C)C)c1NC(=O)NS(=O)(=O)c1cnn2c1OCCC2` [drawing 394], the IC50 was 1000 to 10000 nM in assay [2] (setting [4]); under 100 nM in assay [3] (LPS and nigericin stimulated cells, read-out: CTG pIC50 (converted)).
On to `O=C(NC1(c2ccccc2)CC1)NS(=O)(=O)c1cnn2c1OCCC2` [drawing 376], for which the IC50 in assay [2] (setting [4]) and in assay [3] (setting [5]) was over 10000 nM each time.
In the case of `O=C(NC1C2CC3CC(C2)C1C3)NS(=O)(=O)c1cnn2c1OCCC2` (stereo not shown), the IC50 in assay [2] (setting [4]) was 1000 to 10000 nM; in assay [3] (setting [5]), over 10000 nM.
For `CC(C)c1cc(N(C)C)nc(C(C)C)c1NC(=O)NS(=O)(=O)c1cnn2c1OCCC2` [Example 51, Sodium N-((6-(dimethylamino)-2,4-diisopropylpyridin-3-yl)carbamoyl)-6,7-dihydro-5H-pyrazolo[5,1-b][1,3]oxazine-3-sulfonamide], the IC50 in assay [2] (setting [6]) stood at 2070 nM; in assay [3] (setting [7]), 1120 nM.
As for `CN[C@@H]1COc2c(S(=O)(=O)NC(=O)Nc3c(C(C)C)cc(OC)nc3C(C)C)cnn2C1` [drawing 408], the IC50 in assay [2] (setting [4]) was 100 to 1000 nM; in assay [3] (setting [5]), under 100 nM.
`CC(C)c1ccnc(C(C)C)c1NC(=O)NS(=O)(=O)c1cnn2c1OCCC2` [Example 31, N-((2,4-diisopropylpyridin-3-yl)carbamoyl)-6,7-dihydro-5H-pyrazolo[5,1-b][1,3]oxazine-3-sulfonamide]: the results for the IC50 in assay [2] (setting [6]) and in assay [3] (setting [7]) were 4380 nM and 890 nM, respectively.
For `CC(C)c1cc(Cl)nc(C(C)C)c1NC(=O)NS(=O)(=O)c1cnn2c1OCCC2` [drawing 399], the IC50 in assay [2] (setting [4]) and in assay [3] (setting [5]) was 100 to 1000 nM each time.
For `CC(C)n1nc2c(c1NC(=O)NS(=O)(=O)c1cnn3c1OCCC3)CCC2` [drawing 411], the IC50 in assay [2] (setting [4]) was 1000 to 10000 nM; in assay [3] (setting [5]), over 10000 nM.
The corresponding values for `COc1cc(C(C)C)c(NC(=O)NS(=O)(=O)c2cnn3c2OCC(CNC(C)=O)C3)c(C(C)C)n1` (stereo not shown) are 1000 to 10000 nM and 1000 to 10000 nM.
The corresponding values for `COc1cc(C(C)C)c(NC(=O)NS(=O)(=O)c2cnn3c2OC[C@@H](N2CC(OC)C2)C3)c(C(C)C)n1` [drawing 409] are under 100 nM and 100 to 1000 nM.
On the same counts, the results for `Cc1onc(-c2ccccc2)c1NC(=O)NS(=O)(=O)c1cnn2c1OCCC2` [drawing 373] are over 10000 nM and over 10000 nM.
`COc1cc(C(C)C)c(NC(=O)NS(=O)(=O)c2cnn3c2OC[C@@H](OC)C3)c(C(C)C)n1` [Example 37a, Sodium (S)—N-((2,4-diisopropyl-6-methoxypyridin-3-yl)carbamoyl)-6-methoxy-6,7-dihydro-5H-pyrazolo[5,1-b][1,3]oxazine-3-sulfonamide]: the results for the IC50 in assay [2] (setting [6]) and in assay [3] (setting [7]) were 550 nM and 600 nM, respectively.
In the case of `CC(C)c1cc(C#N)nc(C(C)C)c1NC(=O)NS(=O)(=O)c1cnn2c1OCCC2` [drawing 416], the IC50 in assay [2] (setting [4]) was 1000 to 10000 nM; in assay [3] (setting [5]), 100 to 1000 nM.
As to `CC(C)n1nc2c(c1NC(=O)NS(=O)(=O)c1cnn3c1OCCC3)CCC2` [Example 44, N-((2-isopropyl-2,4,5,6-tetrahydrocyclopenta[c]pyrazol-3-yl)carbamoyl)-6,7-dihydro-5H-pyrazolo[5,1-b][1,3]oxazine-3-sulfonamide], the IC50 in assay [2] (setting [6]) is 1220 nM; in assay [3] (setting [7]), over 10000 nM.
`CC(C)c1nn(CC2CC2)c(C(C)C)c1NC(=O)NS(=O)(=O)c1cnn2c1OCCC2` [drawing 402]: the IC50 in assay [2] (setting [4]) and in assay [3] (setting [5]) was 100 to 1000 nM each time.
Regarding `CC(C)c1cncc(C(C)C)c1NC(=O)NS(=O)(=O)c1cnn2c1OCCC2` [Example 28, N-((3,5-diisopropylpyridin-4-yl)carbamoyl)-6,7-dihydro-5H-pyrazolo[5,1-b][1,3]oxazine-3-sulfonamide], the results for the IC50 in assay [2] (setting [6]) and in assay [3] (setting [7]) were 1790 nM and 69 nM, respectively.
Consider `CO[C@@H]1COc2c(S(=O)(=O)NC(=O)Nc3c(C(C)C)nn(C)c3C(C)C)cnn2C1` [drawing 405], for which the IC50 in assay [2] (setting [4]) was 1000 to 10000 nM; in assay [3] (setting [5]), 100 to 1000 nM.
In the case of `O=C(NC1C2CC3CC(C2)CC1C3)NS(=O)(=O)c1cnn2c1OCCC2` (stereo not shown) [Example 3, N-(((1r,3r,5r,7r)-adamantan-2-yl)carbamoyl)-6,7-dihydro-5H-pyrazolo[5,1-b][1,3]oxazine-3-sulfonamide], the IC50 in assay [2] (setting [6]) was 2080 nM; in assay [3] (setting [7]) it was over 10000 nM.
